Laboratory results as given in PMC4493534 (Theranostics, 2015).

Experiments:
TSPO [1] = biological target: TSPO (Rattus norvegicus, UniProt P16257); conditions: ischemic rat brain, previously published data; cited from earlier work
TSPO [2] = test: In vitro autoradiography of postmortem human brain; type: binding; conditions: postmortem human temporal cortex sections, 0.5 nM radioligand

TSPO (Rattus norvegicus, UniProt P16257), sequence (P16257 whole entry): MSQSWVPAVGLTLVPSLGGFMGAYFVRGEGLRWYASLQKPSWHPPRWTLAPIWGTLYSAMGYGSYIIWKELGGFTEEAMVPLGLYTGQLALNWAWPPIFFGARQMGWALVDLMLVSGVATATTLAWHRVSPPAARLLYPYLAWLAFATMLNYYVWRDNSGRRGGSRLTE

binding ratio for HAB-1 to that of LAB-1, RB(H/L) (also printed RB(L/H)) (TSPO [2])	SMILES	apparent BPND (SRTM) (TSPO [1])
–	CC[C@@H](C)N([11CH3])C(=O)c1cc2ccccc2c(-c2ccccc2Cl)n1 [(R)[^11C]PK11195]	1.59 ± 0.33
~4.60	CCN(Cc1ccccc1)C(=O)Cn1c(=O)n(C)c2cnc(-c3ccccc3)nc21 [[^11C]AC-5216]	–
~1.19	COc1ccc(O[11CH3])c(CN(C(C)=O)c2cc(F)ccc2Oc2ccccc2)c1 [[^11C]DAA1106]	–
